Several values for one entry are separate records, joined by “and”; a condition that tells them apart may be missing. Identical values can stand only once.
System: A498 complex spheroids with HUVEC/MSC, growth
Assay: Anticancer human tumor A498 cell line growth inhibition [AhR];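 also: seven day exposure starting three days after spheroid seeding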;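 as to viability, T/C: luminescence signal used as a surrogate for viable cells; luminescence viability scaled so 100% equals DMSO vehicle wells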
Details: for viability, T/C: stronger effect = lower value
Method in brief: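 Complex tumor spheroids co-cultured with HUVEC and human MSC stroma; AhR antagonists tested in combination with standard-of-care and investigational agents. Top concentration at or near clinical Cmax (else 10 microM), half-log dilutions; growth expressed as percent test/control.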

[1] = curve of first compound, second compound 0.1 µM
[2] = curve of first compound, second compound 0.316 µM
[3] = curve of first compound, second compound 1 µM
[4] = curve of first compound, second compound 3.16 µM
[5] = curve of first compound, second compound 10 µM
[6] = second compound 0.1 µM, first compound 0.0316 µM
[7] = second compound 0.1 µM, first compound 0.1 µM
[8] = second compound 0.1 µM, first compound 0.316 µM
[9] = second compound 0.1 µM, first compound 1 µM
[10] = second compound 0.1 µM, first compound 3.16 µM
[11] = second compound 0.1 µM, first compound 10 µM
[12] = second compound 0.316 µM, first compound 0.0316 µM
[13] = second compound 0.316 µM, first compound 0.1 µM
[14] = second compound 0.316 µM, first compound 0.316 µM
[15] = second compound 0.316 µM, first compound 1 µM
[16] = second compound 0.316 µM, first compound 3.16 µM
[17] = second compound 0.316 µM, first compound 10 µM
[18] = second compound 1 µM, first compound 0.0316 µM
[19] = second compound 1 µM, first compound 0.1 µM
[20] = second compound 1 µM, first compound 0.316 µM
[21] = second compound 1 µM, first compound 1 µM
[22] = second compound 1 µM, first compound 3.16 µM
[23] = second compound 1 µM, first compound 10 µM
[24] = second compound 3.16 µM, first compound 0.0316 µM
[25] = second compound 3.16 µM, first compound 0.1 µM
[26] = second compound 3.16 µM, first compound 0.316 µM
[27] = second compound 3.16 µM, first compound 1 µM
[28] = second compound 3.16 µM, first compound 3.16 µM
[29] = second compound 3.16 µM, first compound 10 µM
[30] = second compound 10 µM, first compound 0.0316 µM
[31] = second compound 10 µM, first compound 0.1 µM
[32] = second compound 10 µM, first compound 0.316 µM
[33] = second compound 10 µM, first compound 1 µM
[34] = second compound 10 µM, first compound 3.16 µM
[35] = second compound 10 µM, first compound 10 µM

Row | SMILES | IC50 [1] | IC50 [2] | IC50 [3] | IC50 [4] | IC50 [5] | viability, T/C [6] | viability, T/C [7] | viability, T/C [8] | viability, T/C [9] | viability, T/C [10] | viability, T/C [11] | viability, T/C [12] | viability, T/C [13] | viability, T/C [14] | viability, T/C [15] | viability, T/C [16] | viability, T/C [17] | viability, T/C [18] | viability, T/C [19] | viability, T/C [20] | further results
1 | COc1ccc([C@@H](O)c2cc(-c3ncnc4cc(N5CCOCC5)ccc34)c(F)cc2Cl)nn1 |  |  |  |  |  |  |  |  |  |  |  |  |  |  |  |  |  |  |  |  | viability, T/C (compound 0.0316 µM): 96.5% and 95.1% and 98.9%; viability, T/C (compound 0.1 µM): 92% and 80.4% and 92.3%; viability, T/C (compound 0.316 µM): 64.8% and 60.7% and 62%; viability, T/C (compound 1 µM): 40.2% and 59.5% and 30.9%; viability, T/C (compound 3.16 µM): 23.1% and 19.5% and 17.6%; viability, T/C (compound 10 µM): 12.3% and 7.92% and 9.02%; IC50 (curve of compound): 654 nM and 887 nM and 508 nM
2 | COc1cc(Nc2ncc3c(n2)-c2ccc(Cl)cc2C(c2c(F)cccc2OC)=NC3)ccc1C(=O)O + Cc1cncc(-c2nc(NCCc3c[nH]c4ccccc34)c3ncn(C(C)C)c3n2)c1 | 1460 nM | 1790 nM | 918 nM | 418 nM | < 31.6 nM | 68.9% | 72% | 64% | 51.5% | 44.2% | 32.4% | 71.9% | 67.8% | 69.6% | 54% | 45.3% | 35% | 71.2% | 71.4% | 62.4% | viability, T/C [21]: 47.4%; viability, T/C [22]: 41.4%; viability, T/C [23]: 33.4%; viability, T/C [24]: 56.9%; viability, T/C [25]: 58%; viability, T/C [26]: 52.2%; viability, T/C [27]: 42.3%; viability, T/C [28]: 35.3%; viability, T/C [29]: 30.5%; viability, T/C [30]: 4.64%; viability, T/C [31]: 6.08%; viability, T/C [32]: 4.95%; viability, T/C [33]: 4.83%; viability, T/C [34]: 4.84%; viability, T/C [35]: 6.67%
3 | O=C(c1cc(Cc2n[nH]c(=O)c3ccccc23)ccc1F)N1CCN(C(=O)C2CC2)CC1 + Cc1cncc(-c2nc(NCCc3c[nH]c4ccccc34)c3ncn(C(C)C)c3n2)c1 | > 10000 nM | > 10000 nM | > 10000 nM | > 10000 nM | < 31.6 nM | 96.9% | 93.8% | 89.2% | 88.5% | 89.2% | 87.3% | 102% | 101% | 97.9% | 94.7% | 93.8% | 86% | 92.8% | 89.4% | 93.8% | viability, T/C [21]: 88.8%; viability, T/C [22]: 84%; viability, T/C [23]: 86%; viability, T/C [24]: 56.3%; viability, T/C [25]: 62.5%; viability, T/C [26]: 59.8%; viability, T/C [27]: 58.2%; viability, T/C [28]: 54.3%; viability, T/C [29]: 57.7%; viability, T/C [30]: 4.54%; viability, T/C [31]: 4.29%; viability, T/C [32]: 4.31%; viability, T/C [33]: 4.01%; viability, T/C [34]: 4.31%; viability, T/C [35]: 6.37%
4 | NS(=O)(=O)OCC1CC(n2ccc3c(NC4CCc5ccccc54)ncnc32)CC1O (configuration not stated) + Cc1cncc(-c2nc(NCCc3c[nH]c4ccccc34)c3ncn(C(C)C)c3n2)c1 | 448 nM | 412 nM | 244 nM | < 31.6 nM | < 31.6 nM | 87.5% | 86.2% | 55.5% | 33.3% | 23.7% | 18.3% | 89.2% | 81.6% | 52.1% | 35.4% | 22.4% | 19.2% | 78.3% | 71.3% | 41.6% | viability, T/C [21]: 29.7%; viability, T/C [22]: 20.3%; viability, T/C [23]: 17.9%; viability, T/C [24]: 19.1%; viability, T/C [25]: 18.4%; viability, T/C [26]: 18.8%; viability, T/C [27]: 18.3%; viability, T/C [28]: 15.5%; viability, T/C [29]: 13.8%; viability, T/C [30]: 1.63%; viability, T/C [31]: 1.35%; viability, T/C [32]: 0.89%; viability, T/C [33]: 0.94%; viability, T/C [34]: 0.76%; viability, T/C [35]: 0.77%

Reference: PubChem BioAssay AID1919007 (Molecular Pharmacology Branch, DTP, NCI, 2023)
